From US4945098A, “Novel propane-1,3-diol derivatives and use” (Leo Pharmaceutical Products Ltd. A/S (Lovens Kemiske Fabrik, priority 1985, dated 1990)

Assay: hygroscopicity
Format: physicochemical
Settings: crystals from acetone/ether, monohydrate

C=C(COC(=O)CCCCCC[n+]1ccsc1)COC(=O)NCCCCCCCCCCCCCCCCCC [Example 46, 1-Octadecylaminocarbonyloxy-3-[7-(3-thiazolio)heptanoyloxy]-2-methylenepropane bromide]
hygroscopicity: Hygroscopic
